Patent US11607393B2, “Drug delivery method for targeting cancer stem cells” (priority 2017, dated 2023)

Key:
[1] = tested on: MDA-MB-231 human breast cancer cells; assay: MDA-MB-231 cells in 3D non-adherent PEG diacrylate matrix (stem sub-population), cell viability and tumorsphere number; type: cell-based
[2] = tested on: MDA-MB-231 human breast cancer cells; assay: MDA-MB-231 cells on 2D adherent polystyrene culture plates (differentiated sub-population), cell viability; type: cell-based
Method: (§1) MDA-MB-231 human breast cancer cells were cultured on 2D adherent polystyrene culture plates that enriched the differentiated cell sub-population (CDC) and in 3D polyethylene glycol diacrylate crosslinked non-adherent matrix that enriches the stem sub-population (CSC). FIGS. 4A-4D compare cell content and the expression of CD44, ABCG2, and EGFR markers as a function of time.
FIGS. 5A-5D show the response of the MDA-MB-231 human breast cancer cells cultured in 2D adherent plates and 3D non-adherent matrix to treatment with Doxorubicin (DOX) cancer drug. For the 2D culture, cell viability decreased exponentially as the drug concentration increased (FIG. 5A) and reached about 5% as the drug concentration was increased to 5 μM.

CD44 = assay: Expression of CSC marker CD44 in MDA-MB-231 cells in 3D non-adherent matrix; type: cell-based, human
Method: as §1
(§2) FIG. 6A and FIG. 6B show the expression of CSC markers CD44 and EGFR, respectively, of MDA-MB-231 (MDA) human breast cancer cells grown in a 3D non-adherent matrix, as described in Example 1 above, after exposure to free Paclitaxel (PTX) or PTX conjugated to POSS nanoparticles (PTXconjPOSS) as a function of incubation time.

EGFR = assay: Expression of stem cell marker EGFR in MDA-MB-231 cells in 3D non-adherent matrix; type: cell-based, human; details: as a function of incubation time (FIG. 6B)
Method: as §1, §2

Row | SMILES | number of tumorspheres ([1]; 3D matrix, 0.5 μM DOX concentration (FIG. 5C)) | number of tumorspheres, % of the initial number ([1]; 3D matrix, DOX concentration above 0.5 μM (FIG. 5C)) [%] | cell viability ([1]; 3D matrix, drug concentration 0.5 μM (FIG. 5B)) | effectiveness against cells in 3D non-adherent matrix ([1]; 3D non-adherent matrix, stem cell sub-population dominates (FIGS. 5B-5D)) | viability at 5 µM ([1]; Homo sapiens, MDA-MB-231, 3D matrix, 5 μM DOX concentration (FIG. 5B)) [%] | cells removed ([2]; 2D culture (FIG. 5A)) [%] | viability at 5 µM ([2]; Homo sapiens, MDA-MB-231, 2D culture, drug concentration 5 μM (FIG. 5A)) [%] | expression of CSC marker CD44 (CD44; 3D matrix, higher DOX concentrations (FIG. 5D)) | effectiveness against the differentiated sub-population of cancer cells ([2]; no data shown) | expression of EGFR (EGFR) | expression of CD44 (CD44; 3D non-adherent matrix, as a function of incubation time (FIG. 6A)) | toxicity to CSCs (CD44; concluded from CD44 and EGFR expression in 3D non-adherent matrix)
1 | COc1cccc2c1C(=O)c1c(O)c3c(c(O)c1C2=O)C[C@@](O)(C(=O)CO)C[C@@H]3O[C@H]1C[C@H](N)[C@H](O)[C@H](C)O1 [DOX, Doxorubicin] | first increased | 85 | first increased | not effective | 35 | 95 | ~5 | dramatically increased | – | – | – | –
2 | CC(=O)O[C@H]1C(=O)[C@@]2(C)[C@H]([C@H](OC(=O)c3ccccc3)[C@]3(O)C[C@H](OC(=O)[C@H](O)[C@@H](NC(=O)c4ccccc4)c4ccccc4)C(C)=C1C3(C)C)[C@]1(OC(C)=O)CO[C@@H]1C[C@@H]2O [PTX, Paclitaxel] | – | – | – | – | – | – | – | – | effective | very high expression | very high expression | not toxic to CSCs
